Reference: article PMC9942807, “Structure–function correlates of fibrinogen binding by Acinetobacter adhesins critical in catheter-associated urinary tract infections” (Proceedings of the National Academy of Sciences of the …, 2023)

Key:
[1] = target: bovine submaxillary mucin (BSM) (bovine); assay: BLI; biotinylated BSM loaded on streptavidin pins; Abp2DRBD constructs at 2.07 µM in 1× PBS + 2% BSA + 0.05% Tween-20; 300 s association, 300 s dissociation; end time point of association compared
[2] = target: bovine submaxillary mucin (BSM); assay: BLI; settings: parent: est. 0.65; read off a plot
Abp2DRBD = target: T1, Abp2DRBD (Acinetobacter baumannii, UniProt A0A7U3Y091); assay: glycan microarray (CFG v5.[…]), biotinylated protein; format: binding; settings: protein 50 μg/mL; glycan immobilised through spacer; labelled protein
T1 construct: gene ACICU_01810

Abp1DRBD [3] = target: T2, Abp1DRBD (Acinetobacter baumannii, UniProt A0A219C937); assay: glycan microarray (CFG v5.[…]), biotinylated protein; format: binding; settings: protein 50 μg/mL; glycan immobilised through spacer; labelled protein
T2 construct: gene fimA_2

Abp1DRBD [4] = target: T2, Abp1DRBD; assay: glycan microarray (CFG v5.[…]), biotinylated protein; format: binding; settings: protein 50 μg/mL; glycan immobilised through spacer; labelled protein; remark: listed apart in the source

Substance | Abp2DRBD / Average RFU (Abp2DRBD) | Abp1DRBD / Average RFU (Abp1DRBD [3]) | also measured
Abp2D receptor-binding domain (ACICU) R102A (domain or fragment) |  |  | percent reduction of binding relative to Abp2DRBD WT [1]: 70%
Abp2D receptor-binding domain (ACICU) Y141A (domain or fragment) |  |  | percent reduction of binding relative to Abp2DRBD WT [1]: 90%
Abp2D receptor-binding domain from ACICU (Abp2DRBD), wild type R86A |  |  | response [2]: 0.66 nm
Abp2D receptor-binding domain from ACICU (Abp2DRBD), wild type R86E |  |  | response [2]: 0.02 nm
Abp2D receptor-binding domain from ACICU (Abp2DRBD), wild type Y100A |  |  | response [2]: 0.46 nm
Fuca1-2Galb1-4(Fuca1-3)GlcNAcb1-2Mana1-6(Fuca1-2Galb1-4(Fuca1-3)GlcNAcb1-2Mana1-3)Manb1-4GlcNAcb1-4GlcNAb-Sp20 [compound 356] | 58,018 ± 2,343 RFU | 2,867 ± 192 RFU | 
Fuca1-2Galb1-4(Fuca1-3)GlcNAcb1-2Mana1-6(Fuca1-2Galb1-4(Fuca1-3)GlcNAcb1-4(Fuca1-2Galb1-4(Fuca1-3)GlcNAcb1-2)Mana1-3)Manb1-4GlcNAcb1-4GlcNAcb-Sp12 [compound 439] | 30,667 ± 511 RFU | 3,373 ± 55 RFU | 
Galb1-3GlcNAcb1-3Galb1-3GlcNAcb-Sp0 [compound 285] | 28,674 ± 4,137 RFU | 3,392 ± 319 RFU | 
Galb1-4(Fuca1-3)GlcNAcb1-2Mana1-6(Galb1-4(Fuca1-3)GlcNAcb1-2Mana1-3)Manb1-4GlcNAcb1-4(Fuca1-6)GlcNAcb-Sp22 [compound 412] | 48,357 ± 11,791 RFU | 2,932 ± 266 RFU | 
GlcNAcb1-3Galb1-4GlcNAcb1-2Mana1-6(GlcNAcb1-3Galb1-4GlcNAcb1-2Mana1-3)Manb1-4GlcNAcb1-4GlcNAcb-Sp12 [compound 531] | 59,914 ± 1,963 RFU | 6,977 ± 1,001 RFU | 
GlcNAcb1-3Galb1-4GlcNAcb1-3Galb1-4GlcNAcb1-2Mana1-6(GlcNAcb1-3Galb1-4GlcNAcb1-3Galb1-4GlcNAcb1-2Mana1-3)Manb1-4GlcNAcb1-4GlcNAcb-Sp12 [compound 535] | 34,056 ± 4,827 RFU | 4,735 ± 602 RFU | 
GlcNAcb1-3Galb1-4GlcNAcb1-6(GlcNAcb1-3Galb1-4GlcNAcb1-2)Mana1-6(GlcNAcb1-3Galb1-4GlcNAcb1-2Man a1-3)Manb1-4GlcNAcb1-4GlcNAc-Sp24 [compound 545] | 39,436 ± 6,368 RFU | 3,159 ± 350 RFU | 
Neu5Aca2-3Galb1-4GlcNAcb1-2Mana-Sp0 [compound 470] | 53,822 ± 4,116 RFU | 6,747 ± 133 RFU | 
Neu5Aca2-3Galb1-4GlcNAcb1-3Galb1-4GlcNAcb1-3Galb1-4GlcNAcb1-2Mana1-6(Neu5Aca2-3Galb1-4GlcNAcb1-3Galb1-4GlcNAcb1-3Galb1-4GlcNAcb1-2Mana1-3)Manb1-4GlcNAcb1-4GlcNAcb-Sp12 [compound 582] |  |  | Abp1DRBD / SD (Abp1DRBD [4]): 9,786 ± 418 RFU
Neu5Aca2-6Galb1-4GlcNAcb1-6GalNAca-Sp14 [compound 472] | 54,517 ± 1,322 RFU | 4,714 ± 450 RFU | 
